According to ChEMBL document CHEMBL1139958, “Synthesis and biological evaluation of analogues of the anti-tumor alkaloid naamidine A” (Bioorg Med Chem Lett, 2007):

Assay: Inhibition IL3-dependent mitogenesis of mouse BaF/ERX cells by [3H]thymidine incorporation assay
Format: functional, cell-based

Row | IC50 [µM] | SMILES
1 | 75 | COc1ccc(Cc2[nH]c(=N)n(C)c2Cc2ccc(O)cc2)cc1 [NAAMINE A]
2 | 10 | COc1ccc(-c2nc(NC3=NC(=O)N(C)C3=O)sc2-c2ccc(OC)cc2)cc1

Assay: Inhibition EGF-dependent mitogenesis of mouse BaF/ERX cells by [3H]thymidine incorporation assay
Format: functional, cell-based

Row | SMILES | IC50 [µM]
3 | COc1ccc(Cc2nc(NC3=NC(=O)N(C)C3=O)n(C)c2Cc2ccc(O)cc2)cc1 | 3
4 | COc1ccc(-c2nc(NC(=O)[C@H](C)N)sc2-c2ccc(OC)cc2)cc1 | 12
5 | CN1C(=O)N=C(Nc2ncc(Cc3ccc(O)cc3)n2C)C1=O | 4
6 | COc1ccc(-c2nc(NC(=O)NCc3ccccc3)sc2-c2ccc(OC)cc2)cc1 | > 75
7 | COc1ccc(Cc2[nH]c(=N)n(C)c2Cc2ccc(O)cc2)cc1 [NAAMINE A] | 75
8 | COc1ccc(Cc2nc(N)sc2Cc2ccc(O)cc2)cc1 | 18
9 | COc1ccc(-c2nc(N)sc2-c2ccc(OC)cc2)cc1 | > 75
10 | Nc1nc(-c2ccc(O)cc2)c(-c2ccc(O)cc2)s1 | > 75

Now from value to compound:

Row | IC50 [µM] | SMILES
11 | > 75 | CN1C(=O)N=C(Nc2nc(Cc3ccc(OCc4ccccc4)cc3)c(Cc3ccc(O)cc3)s2)C1=O
12 | 50 | Nc1nc(-c2ccccc2)c(Cc2ccc(O)cc2)s1
13 | 10 | COc1ccc(Cc2nc(NC3=NC(=O)N(C)C3=O)sc2Cc2ccc(O)cc2)cc1
14 | 25 | CN1C(=O)N=C(Nc2nc(-c3ccccc3)c(Cc3ccc(O)cc3)s2)C1=O
15 | > 75 | CN1C(=O)N=C(Nc2nc(-c3ccccc3)c(-c3ccccc3)s2)C1=O
16 | > 75 | Nc1nc(-c2ccccc2)c(-c2ccccc2)s1
17 | 50 | COc1ccc(-c2nc(NC3=NC(=O)N(C)C3=O)sc2-c2ccc(OC)cc2)cc1
18 | 5 | CN1C(=O)N=C(Nc2nc(-c3ccc(O)cc3)c(-c3ccc(O)cc3)s2)C1=O
19 | 15 | CN1C(=O)N=C(Nc2nc(-c3ccc(Cl)cc3)c(Cc3ccc(O)cc3)s2)C1=O
